The record followed here is patent publication US11440903B2, “Salt form and crystal form of compound as FGFR4 inhibitor and preparation method thereof” (GUANGDONG ZHONGSHENG PHARMACEUTICAL CO., LTD, priority 2017, dated 2022).

This data set is described as follows: Stability of the crystal form on stirring as suspension in solvent (40° C., 2 days). Format: physicochemical. To be noted: stirring in methanol at 40° C. for 2 days. Put shortly:
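Suspensions of compound in acetonitrile-water (1:1), ethyl acetate, methanol or ethanol stirred in the dark at 40° C. for 2 days, centrifuged, solids vacuum-dried at 30° C. overnight (room temperature for formula (II)). Some samples first dissolved under ultrasound and partly evaporated. Resulting crystal form identified by XRPD, with DSC and TGA.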

On to `C=CC(=O)N[C@H]1COC[C@H]1Nc1ncc(/C=C(\F)c2c(Cl)c(OC)cc(OC)c2Cl)cn1` [Crystal Form B], for which the “stability in the methanol solution” value is “substantially high stability”. As for `C=CC(=O)N[C@H]1COC[C@H]1Nc1ncc(/C=C(\F)c2c(Cl)c(OC)cc(OC)c2Cl)cn1.CS(=O)(=O)O` [Crystal Form E], the entry is “substantially high stability”.
